Measured values as given in patent US7795237B2, “Pharmaceutical composition and process” (priority 2005, dated 2010).

Assays:
hepatitis C virus (HCV) = assay: Viral load of patients infected with hepatitis C virus; type: in vivo
[1] = Behaviour on exposure to water (gelling); type: physicochemical; details: crystalline form exposed to water

CC(C)C(=O)OC[C@@]1(N=[N+]=[N-])O[C@@H](n2ccc(N)nc2=O)[C@H](OC(=O)C(C)C)[C@@H]1OC(=O)C(C)C.Cl [I, isobutyric acid (2R,3S,4R,5R)-5-(4-amino-2-oxo-2H-pyrimidin-1-yl)-2-azido-3,4-bis-iso-butyryloxy-tetrahydro-furan-2-ylmethyl ester; hydrochloride salt]
viral load (hepatitis C virus (HCV)): decrease the viral load
gel formation when exposed to water [1]: readily forms a gel when exposed to water
